Experimental data from US9422262B2, “Compounds and methods for treating diseases mediated by protease activated receptors” (The Broad Institute, Inc., priority 2010, dated 2016).

Legend:
[1] = Stability in human plasma; format: in vitro ADME
Source text: (§1) Since there are also situations in which longer term anticoagulation is desired, we performed further studies in the thrombus formation model to assess analogs of compound 1 that may have a more long-lived effect. […] This instability in mouse plasma may have contributed to its short half-life of efficacy in vivo.

PAR1 = target: T1, PAR1 (Homo sapiens, UniProt P25116); test: PAR1-mediated platelet aggregation and shape change; format: cell-based; parameters: endogenous in cells; host or cells: platelets (platelet-rich plasma; washed platelets from individual donors); conditions: FIG. 3A
T1 sequence (P25116 22-425): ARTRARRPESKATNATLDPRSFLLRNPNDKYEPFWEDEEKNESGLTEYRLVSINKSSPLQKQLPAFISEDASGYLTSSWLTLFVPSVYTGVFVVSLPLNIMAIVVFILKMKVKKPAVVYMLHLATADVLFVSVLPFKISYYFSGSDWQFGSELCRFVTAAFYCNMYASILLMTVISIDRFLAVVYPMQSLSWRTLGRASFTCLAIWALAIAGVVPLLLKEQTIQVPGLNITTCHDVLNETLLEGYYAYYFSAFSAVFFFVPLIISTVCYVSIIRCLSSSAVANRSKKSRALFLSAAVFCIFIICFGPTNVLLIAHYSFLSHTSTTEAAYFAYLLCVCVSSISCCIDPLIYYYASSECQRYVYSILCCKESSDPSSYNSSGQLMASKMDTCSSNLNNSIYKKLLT
Source text: This pattern of inhibition is consistent with that of an allosteric inhibitor. […] This observation raised the possibility that compound 1 blocks PAR1 signaling through Gαq (which mediates platelet aggregation downstream of PAR1), but not Gα12/13 (which mediates shape change downstream of PAR1). A previously identified PAR1 inhibitor, 3,5-difluoro aminoisoxazole (3,5-DFAI), inhibited both shape change and aggregation. Shape change that occurred in the presence of compound 1 was blocked by the Rho kinase inhibitor Y27632, confirming participation of Rho kinase downstream of Gα12/13 in compound-1-resistance shape change (FIG. 3A). […] PAR1-mediated decrease in TER in these cells is dependent on Gα12. […] In contrast, 3,5-DFAI inhibited SFLLRN-mediated decrease in TER (FIG. 3B) and compound 1 inhibited Gαq-mediated Ca^2+ flux in these MDCK cells (FIG. 3C).

[2] = Stability in mouse plasma; format: in vitro ADME
Source text: as §1

permeabilized platelets = test: GTP-γ-S induced P-selectin surface expression in permeabilized platelets; format: cell-based, human; conditions: FIG. 1C
Experimental: (§2) To confirm the specificity of compound 1 for PAR1, platelets were incubated with compound 1 and subsequently activated with a variety of platelet agonists. P-selectin surface expression was monitored to detect platelet activation. […] In contrast, an IC50 for inhibition of other agonists was not reached even at concentrations >30-fold its IC50 for PAR1-mediated secretion. To further evaluate whether PAR1 is the target of compound 1, we tested the ability of the compound to inhibit Ca^2+ flux in HEK293 cells overexpressing recombinant PAR1.

mouse PAR4 = target: T2, mouse PAR4 (Mus musculus, UniProt O88634); test: PAR4-mediated aggregation of mouse platelets; format: cell-based; conditions: FIG. 4A
T2 construct: Aggregation studies using mouse platelets; endogenous in cells; host or cells: mouse platelets
T2 sequence (O88634 17-396): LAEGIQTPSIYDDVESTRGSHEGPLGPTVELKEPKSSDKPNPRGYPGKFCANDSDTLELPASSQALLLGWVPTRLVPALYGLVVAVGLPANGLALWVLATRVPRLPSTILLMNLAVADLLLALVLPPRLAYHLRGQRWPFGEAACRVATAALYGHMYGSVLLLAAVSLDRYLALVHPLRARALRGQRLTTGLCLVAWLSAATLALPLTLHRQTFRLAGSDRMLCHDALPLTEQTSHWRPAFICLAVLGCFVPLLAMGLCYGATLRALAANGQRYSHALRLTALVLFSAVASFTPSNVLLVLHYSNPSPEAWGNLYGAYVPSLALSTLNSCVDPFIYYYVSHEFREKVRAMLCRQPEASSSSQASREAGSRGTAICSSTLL

PAR4 = target: T3, PAR4 (Homo sapiens, UniProt Q96RI0); test: Platelet activation induced through PAR4; format: cell-based; conditions: FIG. 1A
T3 construct: endogenous in cells; host or cells: platelets
T3 sequence (Q96RI0 18-385): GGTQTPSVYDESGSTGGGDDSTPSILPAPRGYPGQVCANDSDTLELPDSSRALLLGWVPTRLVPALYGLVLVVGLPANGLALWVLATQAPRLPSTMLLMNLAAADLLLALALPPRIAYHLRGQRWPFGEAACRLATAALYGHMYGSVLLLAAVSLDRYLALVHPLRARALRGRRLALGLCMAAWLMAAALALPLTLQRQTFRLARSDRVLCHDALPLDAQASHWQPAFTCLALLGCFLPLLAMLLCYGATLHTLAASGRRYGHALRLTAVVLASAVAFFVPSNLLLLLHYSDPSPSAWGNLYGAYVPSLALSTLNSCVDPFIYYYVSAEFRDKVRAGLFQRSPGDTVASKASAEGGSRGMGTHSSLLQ
Experimental: as §2

- stability in human plasma [1]: good stability
- PAR1-mediated platelet aggregation (PAR1): inhibited
- PAR1-mediated platelet shape change (PAR1): failed to inhibit
- remaining after 5 hour incubation in mouse plasma [2]: 1.7%
- PAR4-mediated aggregation of mouse platelets (mouse PAR4): inhibits
- platelet activation through PAR4 (PAR4): without inhibiting
SMILES: CCCC(=O)Nc1cccc(NC(=O)c2ccccc2Br)c1 [Compound 1]
- P-selectin surface expression induced by GTP-γ-S (permeabilized platelets): fails to inhibit
